From patent publication US12552783B2, “Modulators of proteolysis and associated methods of use” (Arvinas Operations, Inc., priority 2018, dated 2026)

Target: KRas (Homo sapiens, UniProt P01116, G12C)
Assay: KRas degradation in NCI-H2030 cells by Western blot, normalized to GAPDH (data of Table 14)
Type: cell-based
Parameters: host or cells: NCI-H2030
Conditions: for Dmax: NCI-H2030
How it was run: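 KRas/GAPDH band ratio vs DMSO lane gives % degradation; values under 25% were estimated visually, the rest quantitated. Cells are G12C homozygous, serum-free for 24 h, then dosed at 0.3/1/3 μM (0.1% DMSO). VHL-based compounds 24 h, others 72 h.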

With `C=CC(=O)N1CCN(c2nc(NCCC(=O)N(C)CCOCCOCCNc3cccc4c3C(=O)N(C3CCC(=O)NC3=O)C4=O)nc3c(F)c(-c4c(O)cccc4F)c(Cl)cc23)CC1` [compound 111, 3-(((S)-4-(4-acryloylpiperazin-1-yl)-6-chloro-8-fluoro-7-(2-fluoro-6-hydroxyphenyl)quinazolin-2-yl)amino)-N-(2-(2-(2-((2-(2,6-dioxopiperidin-3-yl)-1,3-dioxoisoindolin-4-yl)amino)ethoxy)ethoxy)ethyl)-N-methylpropanamide] the “Percent Degradation at Indicated Concentration (μM)” value (H2030, 0.3 μM) was “C (Percent Degradation: C ≤ 35)”, the “Percent Degradation at Indicated Concentration (μM)” value (H2030, 1 μM) was “C (Percent Degradation: C ≤ 35)” and the “Percent Degradation at Indicated Concentration (μM)” value (H2030, 3 μM) was “C (Percent Degradation: C ≤ 35)”. The Dmax was at most 35%.
In the case of `CN(CCOCCOCCOc1ccc2c(c1)C(=O)N(C1CCC(=O)NC1=O)C2=O)C(=O)CCNc1nc(N2CCN(C(=O)C(O)O)CC2)c2cc(Cl)c(-c3c(O)cccc3F)c(F)c2n1` [compound 151, 3-(((S)-6-chloro-4-(4-(2,2-dihydroxyacetyl)piperazin-1-yl)-8-fluoro-7-(2-fluoro-6-hydroxyphenyl)quinazolin-2-yl)amino)-N-(2-(2-(2-((2-(2,6-dioxopiperidin-3-yl)-1,3-dioxoisoindolin-5-yl)oxy)ethoxy)ethoxy)ethyl)-N-methylpropanamide], the “Percent Degradation at Indicated Concentration (μM)” value (H2030 cells, 3 μM) is reported as “C (Percent Degradation: C ≤ 35)”.
With `C=CC(=O)N1CCN(c2nc(NCCC(=O)N(C)CCOCCOCC(=O)N[C@H](C(=O)N3C[C@H](O)C[C@H]3C(=O)N[C@@H](C)c3ccc(-c4scnc4C)cc3)C(C)(C)C)nc3c(F)c(-c4cc(O)cc5ccccc45)c(Cl)cc23)CC1` [compound 192, (2S,4R)-1-((2S)-15-((4-(4-acryloylpiperazin-1-yl)-6-chloro-8-fluoro-7-(3-hydroxynaphthalen-1-yl)quinazolin-2-yl)amino)-2-(tert-butyl)-12-methyl-4,13-dioxo-6,9-dioxa-3,12-diazapentadecanoyl)-4-hydroxy-N-((S)-1-(4-(4-methylthiazol-5-yl)phenyl)ethyl)pyrrolidine-2-carboxamide] the “Percent Degradation at Indicated Concentration (μM): 0.1” value (H2030 cells, 0.1 μM) was “C (C ≤ 35)”, the “Percent Degradation at Indicated Concentration (μM): 0.3” value (H2030 cells, 0.3 μM) was “C (C ≤ 35)” and the “Percent Degradation at Indicated Concentration (μM): 1” value (H2030 cells, 1 μM) was “C (C ≤ 35)”. The Dmax (H2030 cells) was at most 35%.
With `C=CC(=O)N1CCN(c2nc(NCCC(=O)N(C)CCOCCOCCOc3cc(-c4scnc4C)ccc3CNC(=O)[C@@H]3C[C@@H](O)CN3C(=O)[C@H](c3cc(C)no3)C(C)C)nc3c(F)c(-c4c(O)cccc4F)c(Cl)cc23)CC1` (atropisomer, axis not shown) [compound 130, (25,4R)-N-(2-(2-(2-(2-(3-(((S)-4-(4-acryloylpiperazin-1-yl)-6-chloro-8-fluoro-7-(2-fluoro-6-hydroxyphenyl)quinazolin-2-yl)amino)-N-methylpropanamido)ethoxy)ethoxy)ethoxy)-4-(4-methylthiazol-5-yl)benzyl)-4-hydroxy-1-((S)-3-methyl-2-(3-methylisoxazol-5-yl)butanoyl)pyrrolidine-2-carboxamide] the “Percent Degradation at Indicated Concentration (μM)” value (H2030, 0.3 μM) was “C (Percent Degradation: C ≤ 35)”, the “Percent Degradation at Indicated Concentration (μM)” value (H2030, 1 μM) was “C (Percent Degradation: C ≤ 35)” and the “Percent Degradation at Indicated Concentration (μM)” value (H2030, 3 μM) was “C (Percent Degradation: C ≤ 35)”. It also gave a Dmax of at most 35%.
`C=CC(=O)N1CCN(c2nc(NCCC(=O)N(C)CCOCCOCCOCCOCCOc3ccc4c(c3)CN(C3CCC(=O)NC3=O)C4=O)nc3c(F)c(-c4cc(O)cc5ccccc45)c(Cl)cc23)CC1` (centres unmarked) [compound 68, 3-((4-(4-acryloylpiperazin-1-yl)-6-chloro-8-fluoro-7-(3-hydroxynaphthalen-1-yl)quinazolin-2-yl)amino)-N-(14-((2-(2,6-dioxopiperidin-3-yl)-1-oxoisoindolin-5-yl)oxy)-3,6,9,12-tetraoxatetradecyl)-N-methylpropanamide] was tested, and the “Percent Degradation at Indicated Concentration (μM)” value (H2030, 0.3 μM) was “C (Percent Degradation: C ≤ 35)”, the “Percent Degradation at Indicated Concentration (μM)” value (H2030, 1 μM) was “C (Percent Degradation: C ≤ 35)” and the “Percent Degradation at Indicated Concentration (μM)” value (H2030, 3 μM) was “C (Percent Degradation: C ≤ 35)”. The Dmax was at most 35%.
